From PMC3170876 (Chemmedchem, 2011) come the findings set out here.

One series deals with human 11β-HSD1 (Homo sapiens, UniProt P28845). Put plainly: 11β-HSD1 inhibition cellular assay. The class given is cell-based. The following applies: for IC50: IC50, human 11β-HSD1, HEK293 cell line transfected with human HSD11B1 gene, mean of three measurements, variance less than 20 %; for inhibition at 1 µM: HEK293, read-out: Percent inhibition.
The next series deals with mouse 11β-HSD1 (Mus musculus, UniProt P50172). Description: Inhibition of mouse 11β-HSD1. The format is cell-based.

Broadly, the IC50 is the concentration needed to halve the response being measured. High values mean weaker potency in that assay, low ones greater potency in that assay. For orientation: melting point means the temperature, or range, at which the solid turns liquid. For orientation: inhibition means the share of the control response that was lost under treatment.

human 11β-HSD1, sequence (P28845 whole entry): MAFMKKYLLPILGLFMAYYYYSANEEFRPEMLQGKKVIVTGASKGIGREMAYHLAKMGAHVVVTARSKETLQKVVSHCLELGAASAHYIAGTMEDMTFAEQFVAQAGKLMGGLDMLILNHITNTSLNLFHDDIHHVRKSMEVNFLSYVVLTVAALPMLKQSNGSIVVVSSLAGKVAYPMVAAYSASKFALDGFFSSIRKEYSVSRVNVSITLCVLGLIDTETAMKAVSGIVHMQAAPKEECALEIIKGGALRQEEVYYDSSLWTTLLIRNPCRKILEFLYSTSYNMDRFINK
mouse 11β-HSD1, sequence (P50172 whole entry): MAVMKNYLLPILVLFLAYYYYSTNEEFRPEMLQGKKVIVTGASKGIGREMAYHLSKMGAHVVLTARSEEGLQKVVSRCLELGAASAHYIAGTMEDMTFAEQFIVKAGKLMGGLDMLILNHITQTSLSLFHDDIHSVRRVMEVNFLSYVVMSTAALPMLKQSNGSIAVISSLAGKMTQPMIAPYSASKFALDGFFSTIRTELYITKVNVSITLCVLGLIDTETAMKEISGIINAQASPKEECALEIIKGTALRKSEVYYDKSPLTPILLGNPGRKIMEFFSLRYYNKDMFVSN

The compound `COC(=O)Cc1nnc(SCC(=O)C23CC4CC(CC(C4)C2)C3)n1C` [Compound 42, Methyl 2-(5-{[2-(adamantan-1-yl)-2-oxoethyl]sulfanyl}-4-methyl-4H-1,2,4-triazol-3-yl)acetate] returned an IC50 against human 11β-HSD1 of 97 nM.
For the compound `Cc1nnc(SCC(=O)C23CC4CC(CC(C4)C2)C3)s1` [Compound 29, 1-(Adamantan-1-yl)-2-(5-methyl-[1,3,4]thiadiazol-2-ylsulfanyl)-ethanone], the melting point was in the range of 102 to 105 °C.
Take `Cn1ccnc1SCC(=O)C12CC3CC(CC(C3)C1)C2` [Compound 27, 1-(Adamantan-1-yl)-2-(1-methyl-1H-imidazol-2-ylsulfanyl)-ethanone]: the melting point is 65 to 69 °C. The same compound showed an IC50 against human 11β-HSD1 of 93 nM.
The compound `Cn1c(SCC(=O)C23CC4CC(CC(C4)C2)C3)nnc1C1CC1` [Compound 40, 1-(Adamantan-1-yl)-2-[(5-cyclopropyl-4-methyl-4H-1,2,4-triazol-3-yl)sulfanyl]ethanone] showed a half-maximal inhibitory concentration (IC50) against human 11β-HSD1 of 129 nM.
The same measure, in the same setting: the figure for `Cc1nnc(SCC(=O)C23CC4CC(CC(C4)C2)C3)n1C(C)C` [Compound 39, 1-(Adamantan-1-yl)-2-{[5-methyl-4-(propan-2-yl)-4H-1,2,4-triazol-3-yl]sulfanyl}ethanone] is 137 nM.
Take `CSc1nnc(SCC(=O)C23CC4CC(CC(C4)C2)C3)s1` [Compound 46, 1-(Adamantan-1-yl)-2-{[5-(methylsulfanyl)-1,3,4-thiadiazol-2-yl]sulfanyl}ethanone]: the melting point was in the range of 133.5 to 135 °C. In addition, the IC50 against human 11β-HSD1 is 306 nM.
`Nc1nnc(S(=O)(=O)CC(=O)C23CC4CC(CC(C4)C2)C3)s1` [Compound 49, 1-(Adamantan-1-yl)-2-(5-amino-1,3,4-thiadiazole-2-sulfonyl)ethanone]: the melting point was 202 to 204 °C. The compound also came in with an IC50 on human 11β-HSD1 of 1790 nM.
In the case of `CN(C)c1nnc(SCC(=O)C23CC4CC(CC(C4)C2)C3)s1` [Compound 45, 1-(Adamantan-1-yl)-2-{[5-(dimethylamino)-1,3,4-thiadiazol-2-yl]sulfanyl}ethanone], it took 4000 nM to reach half-maximal inhibition against human 11β-HSD1 (IC50).
Regarding `O=C(O)c1ccc(CSCC(=O)C23CC4CC(CC(C4)C2)C3)o1` [Compound 19, 5-(((2-(Adamantan-1-yl)-2-oxoethyl)thio)methyl)furan-2-carboxylic acid], the inhibition at 1 µM at human 11β-HSD1 is 67%.
For the compound `O=C(COCc1nccs1)C12CC3CC(CC(C3)C1)C2` [Compound 8, 1-(Adamantan-1-yl)-2-(1,3-thiazol-2-ylmethoxy)ethanone], the melting point lay in the range of 89 to 91 °C. For the same compound, 41 nM corresponded to half-maximal inhibition against human 11β-HSD1 (IC50). In addition, the IC50 on mouse 11β-HSD1 amounted to 18 nM.
Regarding `Cn1ccnc1S(=O)(=O)CC(=O)C12CC3CC(CC(C3)C1)C2` [Compound 35, 1-(Adamantan-1-yl)-2-(1-methyl-1H-imidazole-2-sulfonyl)ethanone], the melting point lay within 124 to 125 °C. For the same compound, half-maximal inhibition against human 11β-HSD1 (IC50) was put at 62 nM.
Compound `Cc1csc(CSCC(=O)C23CC4CC(CC(C4)C2)C3)n1` [Compound 13, 1-(Adamantan-1-yl)-2-{[(4-methyl-1,3-thiazol-2-yl)methyl]sulfanyl}ethanone] showed an IC50 against human 11β-HSD1 of 327 nM.
On to `O=C(CSCc1ccco1)C12CC3CC(CC(C3)C1)C2` [Compound 11, 1-(Adamantan-1-yl)-2-(furan-2-ylmethylsulfanyl)-ethanone], for which half-maximal inhibition on human 11β-HSD1 (IC50) was put at 163 nM.
`Cc1csc(COCC(=O)C23CC4CC(CC(C4)C2)C3)n1` [Compound 9, 1-(Adamantan-1-yl)-2-[(4-methyl-1,3-thiazol-2-yl)methoxy]ethanone] gave a melting point of 77 to 80 °C.
Take `COCc1nnc(SCC(=O)C23CC4CC(CC(C4)C2)C3)n1C` [Compound 41, 1-(Adamantan-1-yl)-2-{[5-(methoxymethyl)-4-methyl-4H-1,2,4-triazol-3-yl]sulfanyl}ethanone]: the IC50 against human 11β-HSD1 amounted to 153 nM.
In the case of `O=C(COCc1cccs1)C12CC3CC(CC(C3)C1)C2` [Compound 6, 1-(Adamantan-1-yl)-2-(thiophen-2-ylmethoxy)ethanone], the melting point was 57 to 58 °C. On human 11β-HSD1, this compound yielded an IC50 of 410 nM.
`CC(=O)Nc1nnc(SCC(=O)C23CC4CC(CC(C4)C2)C3)s1` [Compound 50, N-(5-{[2-(Adamantan-1-yl)-2-oxoethyl]sulfanyl}-1,3,4-thiadiazol-2-yl)acetamide]: it took 848 nM to reach half-maximal inhibition against human 11β-HSD1 (IC50). This lies in the sub-micromolar range.
On the same count and under the same terms, the value for `O=C(CSCc1cccs1)C12CC3CC(CC(C3)C1)C2` [Compound 10, 1-(Adamantan-1-yl)-2-(thiophen-2-ylmethylsulfanyl)ethanone] was 143 nM.
Still for that read-out and setting: the figure for `COC(=O)c1ccc(CSCC(=O)C23CC4CC(CC(C4)C2)C3)o1` [Compound 18, Methyl 5-({[2-(adamantan-1-yl)-2-oxoethyl]sulfanyl}methyl)furan-2-carboxylate] is 264 nM.
`O=C(CSCc1nccs1)C12CC3CC(CC(C3)C1)C2` [Compound 12, 1-(Adamantan-1-yl)-2-[(1,3-thiazol-2-ylmethyl)sulfanyl]ethanone] gave a melting point of 55 to 58 °C. The midpoint of inhibition against human 11β-HSD1, the IC50, lay at 244 nM.
The corresponding values for `O=C(COCc1ccsc1)C12CC3CC(CC(C3)C1)C2` [Compound 7, 1-(Adamantan-1-yl)-2-(thiophen-3-ylmethoxy)ethanone] are 58 to 60 °C and 280 nM.
On human 11β-HSD1, `CN(C)C(=O)c1ccc(CSCC(=O)C23CC4CC(CC(C4)C2)C3)o1` [Compound 20, 5-({[2-(Adamantan-1-yl)-2-oxoethyl]sulfanyl}methyl)-N,N-dimethylfuran-2-carboxamide] yielded an IC50 of 153 nM. This lies in the sub-micromolar range.
Regarding `O=C(CSc1cccs1)C12CC3CC(CC(C3)C1)C2` [Compound 26, 1-(Adamantan-1-yl)-2-(thiophen-2-ylsulfanyl)-ethanone], the melting point was in the range of 69 to 72 °C. On human 11β-HSD1, this compound showed a half-inhibitory concentration (IC50) of 101 nM.
The corresponding values for `Nc1nnc(SCC(=O)C23CC4CC(CC(C4)C2)C3)s1` [Compound 48, 1-(Adamantan-1-yl)-2-[(5-amino-1,3,4-thiadiazol-2-yl)sulfanyl]ethanone] are 198 to 199 °C and 71 nM.
`O=C(CSc1nnc(C2CC2)n1C1CC1)C12CC3CC(CC(C3)C1)C2` [Compound 43, 1-(Adamantan-1-yl)-2-[(4,5-dicyclopropyl-4H-1,2,4-triazol-3-yl)sulfanyl]ethanone] came in with a melting point of 117 to 119 °C. The compound also came in with an IC50 on human 11β-HSD1 of 1860 nM.
On to `CCSc1nnc(SCC(=O)C23CC4CC(CC(C4)C2)C3)s1` [Compound 47, 1-(Adamantan-1-yl)-2-{[5-(ethylsulfanyl)-1,3,4-thiadiazol-2-yl]sulfanyl}ethanone], for which the inhibition at 1 µM at human 11β-HSD1 was found to be 68%.
The compound `Cn1c(SCC(=O)C23CC4CC(CC(C4)C2)C3)nnc1-c1cccs1` [Compound 44, 1-(Adamantan-1-yl)-2-{[4-methyl-5-(thiophen-2-yl)-4H-1,2,4-triazol-3-yl]sulfanyl}ethanone] came in with a melting point of 156 to 157 °C. The compound also had an IC50 against human 11β-HSD1 of 5870 nM.
As for `Cn1cnnc1S(=O)(=O)CC(=O)C12CC3CC(CC(C3)C1)C2` [Compound 36, 1-(Adamantan-1-yl)-2-(4-methyl-4H-[1,2,4]triazole-3-sulfonyl)ethanone], the melting point is 149 to 150 °C. At human 11β-HSD1, the IC50 is 95 nM.
